# Measured values taken from ChEMBL document CHEMBL1208791, “Optimization of alpha-ketoamide based p38 inhibitors through modifications to the region that binds to the allosteric site” (Bioorg Med Chem Lett, 2010).
# How the values were obtained:
# [1] = target: T1, Mitogen-activated protein kinase 14 (Homo sapiens, UniProt Q16539); test: Inhibition of p38 alpha activity by ELISA
# Blood = test: Ex vivo inhibition of […]-alpha-production in human whole blood; format: functional, tissue-based
# [2] = target: T1, Mitogen-activated protein kinase 14; test: Inhibition of phospho-p38 alpha activity by ELISA
# [3] = Clearance in rat at 10 mg/kg, iv or 30 mg/kg, po; format: ADME, organism-based; conditions: in vivo
# [4] = Half life in rat at 10 mg/kg, iv or 30 mg/kg, po; format: ADME, organism-based; conditions: in vivo
# [5] = Tmax in rat at 10 mg/kg, iv or 30 mg/kg, po; format: ADME, organism-based; conditions: in vivo
# [6] = AUC in rat at 10 mg/kg, iv or 30 mg/kg, po; format: ADME, organism-based; conditions: plasma
# [7] = Oral bioavailability in rat at 30 mg/kg, po; format: ADME, organism-based; conditions: in vivo
# [8] = Volume of distribution at steady state in rat at 10 mg/kg, iv or 30 mg/kg, po; format: ADME, organism-based; conditions: in vivo, read-out: Vdss
# [9] = Cmax in rat at 10 mg/kg, iv or 30 mg/kg, po; format: ADME, organism-based; conditions: in vivo
# THP-1 = test: Inhibition of LPS-induced […]-alpha-production in immortalized human THP1 cells; format: functional, cell-based
# T1 sequence (Q16539 whole entry): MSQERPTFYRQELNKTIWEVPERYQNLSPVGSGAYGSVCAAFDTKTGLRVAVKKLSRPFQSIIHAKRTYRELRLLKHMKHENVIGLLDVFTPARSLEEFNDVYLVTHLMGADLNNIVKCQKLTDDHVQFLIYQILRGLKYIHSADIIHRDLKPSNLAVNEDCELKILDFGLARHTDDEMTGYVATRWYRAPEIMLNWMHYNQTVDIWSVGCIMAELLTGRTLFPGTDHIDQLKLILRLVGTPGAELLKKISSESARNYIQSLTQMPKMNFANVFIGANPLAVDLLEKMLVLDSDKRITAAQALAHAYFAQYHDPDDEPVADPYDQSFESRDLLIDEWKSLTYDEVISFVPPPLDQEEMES
SMILES,IC50 [1],IC50 [2],also measured
COc1c(C#N)cc(C(C)(C)C)cc1NC(=O)C(=O)c1ccc(Nc2ccncc2)c2ccccc12,51 nM,,IC50 (Blood): 150 nM
COc1c(NC(=O)C(=O)c2ccc(OCCN3CCOCC3)c3ccccc23)cc(C(C)(C)C)cc1C(=O)NC1CC1,71 nM,140 nM,
N#Cc1cc(NC(=O)C(=O)c2ccc(OCCN3CCOCC3)c3ccccc23)cc(N2CCOCC2)c1,28 nM,,
COc1c(NC(=O)C(O)c2ccc(OCCN3CCOCC3)c3ccccc23)cc(C(C)(C)C)cc1NS(C)(=O)=O (centres undefined),390 nM,,
COc1c(C#N)cc(C(C)(C)C)cc1NC(=O)C(=O)c1ccc(OCCN2CCOCC2)c2ccccc12,42 nM,,clearance [3]: 18.3 mL/min/kg; half-life [4]: 9.8 h; Tmax [5]: 0.5 h; AUC [6]: 15000 ng·h/mL; bioavailability [7]: 57%; Vd [8]: 4.9 L/kg; Cmax [9]: 2400 ng/mL
COc1c(C#N)cc(C(C)(C)C)cc1NC(=O)C(=O)c1ccc(-c2ccncc2)c2ccccc12,60 nM,,
CNc1nccc(Nc2ccc(C(=O)C(=O)Nc3cc(C(C)(C)C)cc(NS(C)(=O)=O)c3OC)c3ccccc23)n1,,21 nM,IC50 (Blood): 100 nM; IC50 (THP-1): 8 nM
COc1c(NC(=O)C(=O)c2ccc(Nc3ccncc3)c3ccccc23)cc(C(C)(C)C)cc1NS(C)(=O)=O,25 nM,2 nM,
COc1c(NC(=O)C(=O)c2ccc(Nc3ccncn3)c3ccccc23)cc(C(C)(C)C)cc1NS(C)(=O)=O,72 nM,1 nM,
CC(C)(C)c1cccc(NC(=O)C(=O)c2ccc(OCCN3CCOCC3)c3ccccc23)c1,250 nM,310 nM,

# Further compounds by falling IC50 [1], results first:
IC50 [1],IC50 [2],SMILES,also measured
250 nM,,COc1ccc(C(C)(C)C)cc1NC(=O)C(=O)c1ccc(OCCN2CCOCC2)c2ccccc12,
200 nM,,COc1c(NC(=O)/C(=N/O)c2ccc(OCCN3CCOCC3)c3ccccc23)cc(C(C)(C)C)cc1NS(C)(=O)=O,
190 nM,,COc1c(C#N)cc(C(C)(C)C)cc1NC(=O)C(=O)c1ccc(-c2ccc(F)nc2)c2ccccc12,
190 nM,90 nM,COc1c(NC(=O)Cc2ccc(OCCN3CCOCC3)c3ccccc23)cc(C(C)(C)C)cc1NS(C)(=O)=O,
78 nM,,COc1c(C#N)cc(C(C)(C)C)cc1NC(=O)C(=O)c1ccc(-c2cccnc2)c2ccccc12,
70 nM,,COc1c(Cl)cc(C(C)(C)C)cc1NC(=O)C(=O)c1ccc(OCCN2CCOCC2)c2ccccc12,
59 nM,38 nM,COc1c(NC(=O)C(=O)c2ccc(OCCN3CCOCC3)c3ccccc23)cc(C(C)(C)C)cc1NS(C)(=O)=O [ITX-5061 FREE BASE],clearance [3]: 26.7 mL/min/kg; half-life [4]: 3.5 h; Tmax [5]: 3 h; AUC [6]: 14000 ng·h/mL; bioavailability [7]: 77%; Vd [8]: 5.2 L/kg; Cmax [9]: 1300 ng/mL
38 nM,13 nM,COc1c(NC(=O)C(=O)c2ccc(Oc3ccnc(N4CCOCC4)n3)c3ccccc23)cc(C(C)(C)C)cc1NS(C)(=O)=O,
33 nM,,CC(C)(C)c1cc(C#N)cc(NC(=O)C(=O)c2ccc(OCCN3CCOCC3)c3ccccc23)c1,
22 nM,,COc1c(C#N)cc(C(C)(C)C)cc1NC(=O)C(=O)c1ccc(-c2ccnc(C)c2)c2ccccc12,
